“Also recorded” adds a separate entry of the source.
How the values were obtained:
Assay type in all cases: cell-based, human
[1] = test system: voltage-gated sodium channels
[2] = test system: hESC and hiPSC cell lines; assay: Efficiency of cortical induction by percentage of Pax6-expressing cells, with or without retinoids; settings: retinol acetate and all-trans retinol included together, with dual SMAD inhibition; two hESC and four iPSC lines
Protocol: hESCs or iPSCs were isolated from MEFs following dissociation to single cells with Accutase (Innovative Cell Technologies) by a 1 hr pre-plate on gelatin-coated dishes in hESC medium supplemented with 10 ng/ml FGF2 and 10 μM ROCK inhibitor (Calbiochem). The non-adherent pluripotent stem cells were harvested and plated on Matrigel (BD) coated 12-well plates in MEF-conditioned hESC medium with 10 ng/ml FGF2. Once the cell culture reached 95% confluence, neural induction was initiated by changing the culture medium to a culture medium that supports neural induction, neurogenesis and neuronal differentiation (referred to as 3N medium), a 1:1 mixture of N2- and B27-containing media. N2 medium: DMEM/F12, N2 (GIBCO), 5 μg/ml Insulin, 1 mM L-Glutamine, 100 μm non-essential amino acids, 100 μM 2-mercaptoethanol, 50 U/ml Penicillin and […] Streptomycin; B27 medium: Neurobasal (Invitrogen), B27 with vitamin A (GIBCO), 200 mM Glutamine, 50 U/ml Penicillin and […] Streptomycin. […] Cells were maintained in this medium for 8-11 days, during which time the efficiency of neural induction was monitored by the appearance of cells with characteristic neuroepithelial cell morphology. […] For quantifying numbers of cells expressing specific cortical neuronal markers, cell cultures were dissociated into single cells with Accutase and resuspended at a density of 100,000 cells/ml. […]

[3] = test system: cortical rosettes; assay: Regional identity of early-stage cortical rosettes after hedgehog signalling agonist treatment
[4] = test system: voltage-gated potassium channels; assay: Whole-cell patch-clamp recording of voltage-gated potassium currents in PSC-derived cortical neurons; settings: step depolarizations from holding potential -80 mV to +40
[5] = test system: gamma-secretase complex; assay: Sandwich ELISA of secreted Aβ40 and Aβ42 in DS cortical neuron culture supernatant under gamma-secretase inhibition; settings: DS cortical neurons
Protocol: Quantification of secreted Aβ40 and Aβ42 was carried out by sandwich ELISA (Invitrogen) of 50 μl of cell culture supernatant from cultures of DS, iPS control and H9 hES cortical neurons. For quantification of water-soluble and insoluble Aβ peptides, water- and formic acid-soluble protein fractions from whole cell extracts of cortical cultures were prepared and levels of each peptide measured by ELISA (Invitrogen). Inhibition of gamma-secretase was carried out in DS cortical cultures by addition of DAPT (Calbiochem) every 48 hours from day 50 of differentiation onwards.

[6] = test system: AMPA receptor; assay: Whole cell patch-clamp recording of miniature excitatory post-synaptic currents (mEPSCs) in hESC/hiPSC-derived cortical neurons; settings: hESC- and hiPSC-derived cortical neurons, cultures between days 45 and 100
Description: […] Borosilicate glass electrodes (resistance 6-10 MΩ) were filled with an intracellular solution containing (in mM): 135 K-Gluconate, 7 NaCl, 10 Hepes, 2 Na2ATP, 0.3 Na2GTP, 2 MgCl2. Cells were viewed using a BW50WI microscope (Olympus) with infrared DIC optics. Recordings were made with a Multiclamp 700 A amplifier (Molecular Devices). Signals were filtered at 4 kHz, sampled at 20 kHz with 16-bit resolution, and analysed using Matlab (MathWorks).

NC1=N[C@H](O)[C@H]2[C@H]3O[C@]4(O)O[C@@H]([C@@H](O)[C@@]2(N1)[C@@H]4O)[C@]3(O)CO [TTX, tetrodotoxin]
fast-activating and inactivating inward voltage-gated sodium currents [1]: completely blocked

CC1=C(/C=C/C(C)=C/C=C/C(C)=C/CO)C(C)(C)CCC1 [all-trans retinol]
cortical neural induction, Pax6 expression [2]: robust, efficient differentiation of all lines to cortical neural stem/progenitor cells, with almost all cells expressing Pax6

c1ccc2c(Oc3nc(Nc4ccc(N5CCOCC5)cc4)c4ncn(C5CCCCC5)c4n3)cccc2c1 [purapomorphine]
effect on regional identity of cortical rosettes [3]: ventralises the rosettes, resulting in the genesis of GAD67+ GABAergic interneurons

retinol acetate
cortical neural induction, Pax6 expression [2]: robust, efficient differentiation of all lines to cortical neural stem/progenitor cells, with almost all cells expressing Pax6

Nc1ccncc1 [4-AP, 4-aminopyridine]
voltage-gated outward potassium current [4]: blocks a fast-activating transient fraction of outward K current; also recorded: a transient component of which was blocked

C[C@H](NC(=O)Cc1cc(F)cc(F)c1)C(=O)N[C@H](C(=O)OC(C)(C)C)c1ccccc1 [DAPT]
production/secretion of both Aβ peptides ([5]; longer term 21 day gamma-secretase inhibition): undetectable levels
production of Aβ40 and Aβ42 (secreted) ([5]; short-term 4 day gamma-secretase inhibition): reduces production of both Aβ40 and Aβ42

N#Cc1cc2[nH]c(=O)c(=O)[nH]c2cc1[N+](=O)[O-] [CNQX]
appearance of mEPSCs [6]: blocked the appearance of mEPSCs

From patent US20130149287A1, “Corticogenesis of Human Pluripotent Cells” (Cambridge Enterprise Limited, priority 2010, published 2013)
